Results taken from patent US8329645B2, “Polymyxin derivatives and uses thereof” (priority 2008, dated 2012).
Read-outs that look alike come from different tables or passages of the source.

Legend:
[1] = rat, Li et al. (2003), identical dosing and administration procedure, cited from earlier work
[2] = test system: E. coli IH3080; experiment: Growth inhibition around wells on LB agar plates; format: cell-based, Escherichia coli
Protocol: Peptides synthesized in Example 1, all carrying at least two (2) but not more than three (3) positive charges, were studied for their ability to inhibit the growth of E. coli. This was tested employing LB agar (LB Agar Lennox, Difco, BD, Sparks, Md., U.S.A) plates. The indicator organism E. coli IH3080 (K1:O018) was an encapsulated strain originally isolated from a neonate suffering from meningitis (Vaara et al. 1984) and obtained from National Public Health Institute, Helsinki, Finland.
(§1) From an overnight-grown culture of IH3080 on LB agar, a suspension of approx. 10^8 cells/ml was prepared in 0.9% NaCl. Aliquots of this suspension were then pipetted on the agar plates and the plates were gently shaken to spread the suspension evenly on the entire surface of the plate. Thereafter, the unabsorbed part of the suspension was removed by using a Pasteur pipette. After the surface had dried, small wells (diameter, 2 mm) were drilled on the plates (five wells per plate) by using a sterile sharp-edged narrow metal tube, single-use pipette tip, and vacuum suction. An alternative method used a swab to spread the inoculum. […] Controls included 0.9% NaCl solution without the compound to be tested. The plates were then incubated for 18 h at 37° C. whereafter the diameters of growth inhibition zones around each well were measured; the diameter of the well itself was not reduced. Finally, the diameters were converted to surface areas of growth inhibition (in square mm).

[3] = test system: Acinetobacter baumannii ATCC 19606; experiment: Growth inhibition around wells on LB agar plates; format: cell-based; conditions: A. baumannii ATCC 19606
Protocol: as §1
(§2) Direct antibacterial activity of sixteen NAB compounds against Acinetobacter baumannii ATCC 19606 and Pseudomonas aeruginosa ATCC 27853 was tested by using the susceptibility determination method described in Example 2. Five compounds (NAB7062, NAB734, NAB737, NAB739, and NAB740) had very notable activity against A. baumannii. […] The antibacterial activity of NAB739 and NAB740 were as strong as or even stronger than that of polymyxin B.

[4] = test system: Pseudomonas aeruginosa ATCC 27853; experiment: Growth inhibition around wells on LB agar plates; format: cell-based; conditions: Ps. aeruginosa ATCC 27853
Protocol: (§3) From an overnight-grown culture of IH3080 on LB agar, a suspension of approx. 10^8 cells/ml was prepared in 0.9% NaCl. Aliquots of this suspension were then pipetted on the agar plates and the plates were gently shaken to spread the suspension evenly on the entire surface of the plate. Thereafter, the unabsorbed part of the suspension was removed by using a Pasteur pipette. After the surface had dried, small wells (diameter, 2 mm) were drilled on the plates (five wells per plate) by using a sterile sharp-edged narrow metal tube, single-use pipette tip, and vacuum suction. An alternative method used a swab to spread the inoculum. Samples (4 μl and 10 μl) of the peptide solution in 0.9% NaCl (at concentrations of 1 μg/ml and 0.1 μg/ml) were then pipetted to the wells and the sample fluids were allowed to absorb. Controls included 0.9% NaCl solution without the compound to be tested. The plates were then incubated for 18 h at 37° C. whereafter the diameters of growth inhibition zones around each well were measured; the diameter of the well itself was not reduced. Finally, the diameters were converted to surface areas of growth inhibition (in square mm).
as §2

[5] = test system: E. coli IH3080; experiment: Sensitization to rifampin: growth inhibition around wells on LB plates containing rifampin; format: cell-based, Escherichia coli; conditions: 4 μg of compound
Protocol: as §3

[6] = test system: A. baumannii ATCC 19606; experiment: as above; format: cell-based, Acinetobacter baumannii; conditions: 4 μg
[7] = test system: Ps. aeruginosa ATCC 27853; experiment: as above; format: cell-based, Pseudomonas aeruginosa; conditions: 4 μg
[8] = test system: E. coli IH3080; experiment: E-test MIC with or without NAB7061 (4 μg/ml), Mueller-Hinton agar; format: cell-based, Escherichia coli
Protocol: (§4) MICs were determined by using E-strips (Biodisk Ltd., Solna, Sweden) according to the manufacturer's instructions.
(§5) The strains originated from ATCC (11 strains), CCUG (11 strains), and NCTC (The National Collection of Type Cultures, Colindale, U.K.; 2 strains). Eight strains (the F-strains) were purchased from Mobidiag Ltd., Helsinki, Finland.

[9] = test system: E. coli ATCC25922; conditions: E. coli ATCC25922
Protocol: as §4, §5

[10] = test system: K. pneumoniae ATCC13883; conditions: K. pneumoniae ATCC13883
Protocol: as §4, §5

[11] = test system: E. cloacae ATCC23355; experiment: E-test MIC with or without NAB7061 (4 μg/ml), Mueller-Hinton agar; format: cell-based, Enterobacter cloacae
Protocol: as §4, §5

| Substance | growth inhibition around a well ([2]; 4 μg of compound per well) | growth inhibition around a well ([2]; 10 μg of compound per well) | growth inhibition around a well ([3]; 4 μg) | growth inhibition around a well ([3]; 10 μg) | growth inhibition around a well ([4]; 4 μg) | growth inhibition around a well ([4]; 10 μg) | growth inhibition around a well in the presence of rifampin ([5]; rifampin 0 μg/ml) | growth inhibition around a well in the presence of rifampin ([5]; rifampin 0.1 μg/ml) | growth inhibition around a well in the presence of rifampin ([5]; rifampin 1.0 μg/ml) | growth inhibition around a well in the presence of rifampin ([6]; rifampin 0 μg/ml) | growth inhibition around a well in the presence of rifampin ([6]; rifampin 0.1 μg/ml) | growth inhibition around a well in the presence of rifampin ([6]; rifampin 0.3 μg/ml) | growth inhibition around a well in the presence of rifampin ([7]; rifampin 0 μg/ml) | growth inhibition around a well in the presence of rifampin ([7]; rifampin 0.1 μg/ml) | growth inhibition around a well in the presence of rifampin ([7]; rifampin 0.3 μg/ml) | also measured |
| --- | --- | --- | --- | --- | --- | --- | --- | --- | --- | --- | --- | --- | --- | --- | --- | --- |
| Colistin (polymyxin E) |  |  |  |  |  |  |  |  |  |  |  |  |  |  |  | clearance [1]: 5.2 ± 0.4 mL/min/kg; half-life [1]: 1.24 ± 0.22 h; renal clearance [1]: 0.010 ± 0.008 mL/min/kg; urinary recovery [1]: 0.18±0.14 % of dose in 24 h; volume of distribution [1]: 0.496 ± 0.06 L/kg; urinary recovery ([1]; listed as polymyxin E (colistin)): about 0.18±0.14 % of dose in 24 h |
| OA-Thr-Ser-cy[Dab-Dab-DPhe-Leu-Dab-Dab-Thr-] [NAB 743] | 38 square millimeters | 79 square millimeters | 0 square millimeters | 0 square millimeters | 28 square millimeters | 38 square millimeters | 38 square millimeters | 133 square millimeters | 227 square millimeters | 0 square millimeters | 38 square millimeters | 227 square millimeters | 28 square millimeters | 28 square millimeters | 28 square millimeters |  |
| OA-Thr-Thr-DSer-cy[Dab-Dab-DPhe-Leu-Dab-Dab-Thr-] [NAB 748] | 113 square millimeters | 156 square millimeters | 20 square millimeters | 50 square millimeters | 20 square millimeters | 50 square millimeters | 113 square millimeters | 154 square millimeters | 154 square millimeters | 20 square millimeters | 133 square millimeters | 201 square millimeters | 20 square millimeters | 13 square millimeters | 20 square millimeters |  |
| Polymyxin B nonapeptide [reference compound] | 0 square millimeters | 0 square millimeters | 0 square millimeters | 0 square millimeters | 113 square millimeters | 177 square millimeters | 0 square millimeters | 20 square millimeters | 113 square millimeters | 0 square millimeters | 133 square millimeters | 154 square millimeters | 113 square millimeters | 113 square millimeters | 154 square millimeters |  |
| quinupristin-dalfopristin [Quinupristin-dalfopr.] |  |  |  |  |  |  |  |  |  |  |  |  |  |  |  | Sensitization factor to antibiotic (MIC without / with 4 μg/ml of NAB 7061) [8]: >21; Sensitization factor to antibiotic (MIC without / with 4 μg/ml of NAB 7061) [9]: >21; Sensitization factor to antibiotic (MIC without / with 4 μg/ml of NAB 7061) [10]: 1; Sensitization factor to antibiotic (MIC without / with 4 μg/ml of NAB 7061) [11]: >5 |
